In one data set the test system is Caco-2 cells. In words: Modified bidirectional permeability assay (24 h preincubation), Caco-2 cells. Particulars: Caco-2, modified assay; 5 µM zosuquidar. On the technique in general: Caco-2 cells form a polarised layer with tight junctions and transporters.
Test in data set [1]: as above
As to conditions: human, Caco-2, pH 7.4.

In a further data set the test system is P-gp. The data set is described as above. Particulars: human, Caco-2, pH 7.4, with zosuquidar 5 µM.
Data set [2] is described as follows: Standard bidirectional permeability assay, Caco-2 cells. Format: in vitro ADME. As to conditions: human; for Papp A→B at 10 µM: read-out: Caco-2 Papp,AB; for Papp B→A at 10 µM: read-out: Caco-2 PappBA.
A further data set concerns P-gp (MDR1). In words: Standard bidirectional permeability assay, MDCK-MDR1 cells. As to conditions: dog, MDCK-MDR1, pH 7.4, 10 µM in donor; for Papp A→B at 10 µM: read-out: MDCK-MDR1 Papp,AB. Format: in vitro ADME, canine.
Test in data set [3]: as above
In kind it is in vitro ADME, canine. Particulars: dog, MDCK-MDR1, pH 7.4, 10 µM in donor, read-out: MDCK-MDR1 PappBA.

[4] abbreviates: pH 7.4, Caco-2, standard conditions.
Where [5] appears, read: Caco-2, pH 7.4, standard assay, 10 µM in donor.

From paper PMC8400635, “A Bidirectional Permeability Assay for beyond Rule of 5 Compounds” (Pharmaceutics, 2021) come the findings set out here.

What is called efflux ratio is a quotient of directional permeabilities that is used to spot active efflux.

On to `Cc1nnc2n1-c1sc(CCC(=O)N3CCOCC3)cc1C(c1ccccc1Cl)=NC2` [Apafant, apafant], for which the “inhibition of efflux by zosuquidar (P-gp substrate)” value with Caco-2 cells is given as “inhibited completely”. In addition, in data set [1], the Papp A→B at 1 µM worked out at 2.6 ×10⁻⁶ cm/s and the efflux ratio at 1 µM was 13.8. The compound also returned a Papp A→B at 1 µM with P-gp of 13 ×10⁻⁶ cm/s. Moreover, the Papp in data set [2] (pH 7.4, Caco-2, standard assay, read-out: intrinsic permeability) was 14 ×10⁻⁶ cm/s. Further, in data set [2] (setting [4]), the Papp A→B was 2.3 ×10⁻⁶ cm/s and the efflux ratio was 15.9.

In the case of `COCCc1ccc(OCC(O)CNC(C)C)cc1` (stereo not drawn) [Metoprolol], in data set [2] (setting [5]), the Papp A→B at 10 µM was 54.3 ×10⁻⁶ cm/s and the Papp B→A at 10 µM was found to be 41 ×10⁻⁶ cm/s. Besides, in the data set with P-gp (MDR1), the efflux ratio at 10 µM amounted to 1 and the Papp A→B at 10 µM was 67.7 ×10⁻⁶ cm/s. Further, in data set [3], the Papp B→A at 10 µM came out at 68.5 ×10⁻⁶ cm/s.

For `CC(C)NCC(O)COc1cccc2ccccc12` (stereo not drawn) [Propranolol], the figures for the efflux ratio at 10 µM (in data set [2] (setting [5]); in the data set with P-gp (MDR1)) were 1.1 and 0.8, respectively. The Papp A→B at 10 µM in data set [2] (setting [5]) came to 79 ×10⁻⁶ cm/s; in the data set on P-gp (MDR1) it was 38.4 ×10⁻⁶ cm/s. Also, the Papp B→A at 10 µM was 69.5 ×10⁻⁶ cm/s in data set [2] (setting [5]) and 32.6 ×10⁻⁶ cm/s in data set [3].
